Measurements from patent publication US4863748A, “Dietary products and uses comprising methylsulfonylmethane” (priority 1986, dated 1989).

Columns and labels:
mucous membranes = assay: Binding of labeled 35-S dimethyl sulfone to mucous membranes by autoradiography; conditions: 35-S labeled
Source text: 1. Reducing the adverse response to inhalant allergens. This action may be due entirely or in part to a physical blocking action. Labeled 35-S dimethyl sulfone binds tightly to the surface of mucous membranes and by autoradiography, the membranes appears to be coated, as with a paint.

[1] = system: pain in the mid-back region; assay: Acute pain, comparison with codeine, urinary calculi, subject three (Example 32); type: in vivo, human; conditions: 1.5 g in warm water, oral
Protocol: Methylsulfonylmethane was compared with codeine for the control of pain in subject three, a person who awakened in the early morning with excruciating pain in the mid-back region, so intense it was difficult to pin-point a specific region. […] Analgesic requirements were 1/2 grain codeine with aspirin every two hours. […] The intense pain returned. The subject was given 1.5 g of methylsulfonylmethane dissolved in 1/2 glass of warm water. At 0.5 hours after taking the methylsulfonylmethane, the pain had essentially disappeared. Methylsulfonylmethane (1.5 g/day) was continued until the afternoon of the third day, when X-ray confirmed that the calculi yet obstructed the ureter. Subject was switched again to codeine with aspirin (1/2 grain×2 hours). […] Methylsulfonylmethane was again administered (1.5 g×4 hours). On day 5 the calculi passed. Recovery was uneventful, requiring neither codeine, methylsulfonylmethane,nor a urinary tract antimicrobial.

Staphylococcus aureus = assay: In vitro antibacterial action; type: cell-based
Source text: (§1) While not as potent or toxic to microbial populations as specific drug agents, by reason of its extremely low host systemic toxicity, methylsulfonylmethane contrasts sharply with present antiinfective therapeutants and methodology. It is doubtful if chemical resistance will develop with infective agents controlled by high, but safe, systemic levels of methylsulfonylmethane.

[2] = system: Streptococcus thermophilus; assay: In vitro antibacterial action; type: cell-based
Source text: as §1

Escherichia coli = assay: In vitro antibacterial action; type: cell-based
Source text: as §1

Leuconostoc citrovorum = assay: In vitro antibacterial action; type: cell-based
Source text: as §1

Salmonello typhimurium = assay: In vitro antibacterial action; type: cell-based
Source text: as §1

[3] = system: emphysema and lung tumor respiratory deficiency; assay: Treatment of lung dysfunction (Example 29); type: in vivo, human
Protocol: Seven human subjects with respiratory deficiency were given methylsulfonylmethane by the oral route in amounts ranging from 250-1,500 mg/day, in single or divided units. Five presented emphysema believed associated with cigarette smoking. Two presented tumor involvement of the lung with additional function impairment due to pleural fluid accumulation.
Two of five subjects with emphysema had prior cardiorespiratory function tests and follow-up evaluations at six and eight weeks after starting a course of 500 mg/day orally of methylsulfonylmethane.
Prior to and during the test period, at approximately two-week intervals, all presenting emphysema were required to walk a measured distance compatible with their physical resources. […] The lung cavity fluid problem of each subject disappeared during the first months of the test period.

**Q.** Which results are given for `CS(C)(=O)=O` [methylsulfonylmethane]?
**A.** binding to the surface of mucous membranes (mucous membranes): binds tightly; time after which the pain had essentially disappeared [1]: 0.5 h; in vitro antibacterial action (Staphylococcus aureus): weak; in vitro antibacterial action [2]: weak; in vitro antibacterial action (Escherichia coli): weak; in vitro antibacterial action (Leuconostoc citrovorum): weak; in vitro antibacterial action (Salmonello typhimurium): weak; cardiorespiratory function values, in particular arterial oxygen tension ([3]; 500 mg/day orally, two emphysema subjects, six and eight weeks): both had values in the normal range; comfortable walking distance ([3]; emphysema sufferers, alone or with 1000 mg ascorbic acid/day, within 2-4 weeks): at least doubled; alertness, comfort and outlook ([3]; two subjects with lung tumors): more alert, comfortable, and with a better outlook and attitude; lung cavity fluid problem ([3]; two subjects with lung tumors, first months): disappeared
